Test [1] deals with T1, Jack bean urease (Canavalia ensiformis, UniProt P07374).
T1 construct: purchased Sigma-Aldrich
Description: biochemical. In kind it is biochemical. The protocol: Urease inhibitory activity was evaluated based on Tanaka et al. report ([18]). Jack bean urease (Sigma-Aldrich, Germany) was used as a surrogate for H. pylori urease. Each well of a 96-well plate contained 25 μL jack bean urease (6U, Sigma-Aldrich) and 25 μL different concentrations of tested materials that were prepared in phosphate buffer (PBS, pH 6.8 ) and DMSO 1% as a co-solvent. After 30 min incubation at room temperature, 200 μL of a stock solution composed of PBS (100 mM), urea (150 mM), and phenol red were added to each well. The absorbance changes were measured at 570 nm by a microplate reader. Hydroxyurea was used as the positive control ([18]).

Test [2] concerns bacteria. Also on record: method as in earlier work. To be noted: combination with norfloxacin, ofloxacin and ciprofloxacin; ref 42 (Falcão‐Silva et al.); cited from earlier work.
The subject of test [3] is Staphylococcus aureus ATCC 6538. As to the kind of experiment: Antibacterial activity by disc diffusion method, S. aureus. In kind it is cell-based. Particulars: extract/fractions 500 µg/disc, ciprofloxacin 5 µg/disc, penicillin 10 µg/disc. The procedure: (§1) Briefly, overnight cultures of bacteria were used to prepare a bacterial inoculum in sterile normal saline. The bacterial inoculum was standardized to the turbidity of 0.5 McFarland (the density equivalent to 1.5 × 10^8 cfu/mL). The surface of Mueller-Hinton (MH) agar plates was covered by 100 µL of diluted bacterial suspension containing 5 ×10^5 cfu. Different concentrations of the plant extract or fraction were prepared. Sterile blank discs (6.4 mm diameter) containing different concentrations of the plant extract or fractions (15 μL) were placed on the agar plates. The mean inhibition zone diameter was measured after overnight incubation at 37 °C.

In test [4] the test system is Staphylococcus epidermidis ATCC 12229. Description: Antibacterial activity by disc diffusion method, S. epidermidis. Format: cell-based. To be noted: extract/fractions 500 µg/disc, ciprofloxacin 5 µg/disc, penicillin 10 µg/disc. The procedure: as §1
In test [5] the test system is Escherichia coli ATCC 8739. As to the kind of experiment: Antibacterial activity by disc diffusion method, E. coli. Particulars: extract/fractions 500 µg/disc, ciprofloxacin 5 µg/disc, penicillin 10 µg/disc. In kind it is cell-based. The procedure:
as §1

Test [6] deals with Helicobacter pylori strain RIGLD-HC180. As to the kind of experiment: Anti-Helicobacter pylori activity by agar dilution method. Format: cell-based. To be noted: RIGLDHC180, 72 h, tested 50 to 2000 μg/mL, read-out: MIC for the growth of Helicobacter pylori. The protocol:
Anti-Helicobacter pylori activity of the samples was investigated by an agar dilution method according to our previous study ([17]). […] The Agar dilution method has been standardized previously as an appropriate method to determine minimum inhibitory concentrations (MIC) of water-insoluble and colored plant extracts. […] Growth control plates were included in each experiment. […] All the experiments were performed in triplicate. Plates, including amoxicillin, were used as a positive control ([17]).

In brackets after ≈: the same amount, converted by molar mass. Like-named read-outs stand apart in the source and are kept apart here.

T1 sequence (P07374 whole entry, looked up): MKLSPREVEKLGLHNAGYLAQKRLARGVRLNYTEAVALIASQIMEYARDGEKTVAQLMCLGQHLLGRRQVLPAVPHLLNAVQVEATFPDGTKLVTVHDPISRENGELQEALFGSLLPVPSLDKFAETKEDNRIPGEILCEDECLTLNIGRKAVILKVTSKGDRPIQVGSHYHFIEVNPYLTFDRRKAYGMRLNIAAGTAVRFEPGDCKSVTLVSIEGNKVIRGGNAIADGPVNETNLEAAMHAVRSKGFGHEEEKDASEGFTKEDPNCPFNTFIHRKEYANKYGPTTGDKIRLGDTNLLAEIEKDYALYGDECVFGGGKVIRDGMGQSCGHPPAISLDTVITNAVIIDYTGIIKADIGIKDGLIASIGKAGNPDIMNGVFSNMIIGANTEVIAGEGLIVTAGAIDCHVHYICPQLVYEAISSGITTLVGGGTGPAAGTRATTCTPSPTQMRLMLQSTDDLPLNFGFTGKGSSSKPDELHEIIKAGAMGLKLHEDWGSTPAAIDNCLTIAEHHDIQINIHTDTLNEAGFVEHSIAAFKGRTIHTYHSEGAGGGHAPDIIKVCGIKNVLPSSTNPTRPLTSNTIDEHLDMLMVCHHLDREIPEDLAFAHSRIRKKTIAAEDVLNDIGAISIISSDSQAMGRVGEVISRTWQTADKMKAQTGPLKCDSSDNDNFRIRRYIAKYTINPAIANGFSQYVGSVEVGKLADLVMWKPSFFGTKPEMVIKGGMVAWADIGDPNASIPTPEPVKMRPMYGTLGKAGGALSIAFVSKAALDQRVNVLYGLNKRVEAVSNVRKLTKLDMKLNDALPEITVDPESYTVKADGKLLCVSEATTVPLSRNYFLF

`Cc1ccc(C(C)C)c(O)c1` [Thymol]: 1.33 ± 0.06 mM corresponded to half-maximal inhibition in test [1] (IC50).
`NC(=O)NO` [Hydroxyurea]: the IC50 in test [1] (isolated compounds, jack bean urease, read-out: Urease inhibitory IC50 (mM) ± SD) came out at 0.78 ± 0.01 mM. Besides, the “Urease inhibitory IC50 (µg/mL) ± SD” value in test [1] (total extract and fractions, jack bean urease) is on record as 59.51 ± 0.01 µg/mL.
Consider `Cc1ccc(C(C)C)cc1O` [Carvacrol], for which half-maximal inhibition in test [1] (IC50) required 0.7 ± 0.01 mM.
`O=C(/C=C/c1ccc(O)cc1)OC[C@H]1O[C@@H](Oc2c(-c3ccc(O)cc3)oc3cc(O)cc(O)c3c2=O)[C@H](O)[C@@H](O)[C@@H]1O` [Tiliroside, Kaempferol-3-O-(6''-O-trans-coumaryl) glucoside]: the half-maximal inhibitory concentration (IC50) in test [1] amounted to 0.45 ± 0.05 mM. In addition, the “Lowering of antibiotic MIC values in combination with tiliroside” value in test [2] is recorded as 2-16 fold.
Turning to penicillin, the “Inhibition zone, S. aureus” value in test [3] is recorded as 24 mm. In test [4], the “Inhibition zone, S. epidermidis” value came to 26 mm. The “Inhibition zone, E. coli” value in test [5] is given as 10 mm.
Turning to `CC1(C)S[C@@H]2[C@H](NC(=O)[C@H](N)c3ccc(O)cc3)C(=O)N2[C@H]1C(=O)O` [Amoxicillin, amoxicillin], the minimum inhibitory concentration (MIC) in test [6] was 0.5 µg/mL (≈ 1.37 µM).

Source of the values: publication PMC8653682, “Anti-Helicobacter pylori Compounds from Oliveria decumbens Vent. through Urease Inhibitory In-vitro and In-silico Studies” (Iranian Journal of Pharmaceutical Research : IJPR, 2021).
